Source: patent US20240116985A1, “STAPLED PEPTIDES AND METHODS THEREOF” (priority 2020, published 2024)

Test: CHI Log D procedure
Type: physicochemical
Conditions: for CHI Log D: pH 7.4

Row | Structure (SMILES) | CHI Log D | chromatographic logD (pH 7.4, CHI Log D) | also measured
1 | CC(=O)N1CCC[C@]12CC=CCCCC1(CCCC=CCCCCCC[C@@](C)(C(=O)N[C@@H](Cc3ccccc3)C(=O)N[C@@H](Cc3c[nH]c4ccccc34)C(=O)N[C@@H](CCC(N)=O)C(N)=O)NC(=O)[C@H](C(C)C)NC(=O)[C@H](Cc3ccccc3)NC(=O)[C@H](C)NC(=O)[C@H](C)NC(=O)[C@@](C)(CC(C)C)NC(=O)[C@H](CC(=O)O)NC1=O)NC(=O)[C@H](C)NC(=O)[C@H](CC(=O)O)NC2=O (single isomer, unassigned) [I-216, Ac-PL3-Asp-Ala-B5-Asp-DaMeL-Ala-Ala-Phe-Val-S8-Phe-Trp-Gln-NH2] | 2.867 |  | 
2 | CC(=O)N1CCC[C@]12CC=CCCCC1(CCCC=CCCCCCC[C@@](C)(C(=O)N[C@@H](Cc3ccc(Cl)cc3)C(=O)N[C@@H](Cc3c[nH]c4ccccc34)C(=O)N[C@@H](CCC(N)=O)C(N)=O)NC(=O)[C@H](C(C)C)NC(=O)[C@H](Cc3ccccc3)NC(=O)[C@H](C)NC(=O)[C@H](C)NC(=O)[C@H](CC(=O)O)NC(=O)[C@H](CC(=O)O)NC1=O)NC(=O)[C@H](C)NC(=O)[C@H](CC(=O)O)NC2=O (single isomer, unassigned) [I-312, Ac-PL3-Asp-Ala-B5-Asp-Asp-Ala-Ala-Phe-Val-S8-4C1F-Trp-Gln-NH2] |  | 2.13 | 
3 | CC(=O)N1CCC[C@]12CC=CCCCC1(CCCC=CCCCCCC[C@@](C)(C(=O)N[C@@H](Cc3ccccc3)C(=O)N[C@@H](Cc3c[nH]c4ccccc34)C(=O)N[C@@H](CCC(N)=O)C(N)=O)NC(=O)[C@H](C(C)C)NC(=O)[C@H](Cc3c[nH]cn3)NC(=O)[C@H](C)NC(=O)[C@H](C)NC(=O)[C@H](CC(=O)O)NC(=O)[C@H](CC(=O)O)NC1=O)NC(=O)[C@H](C)NC(=O)[C@H](CC(=O)O)NC2=O (single isomer, unassigned) [I-320, Ac-PL3-Asp-Ala-B5-Asp-Asp-Ala-Ala-His-Val-S8-Phe-Trp-Gln-NH2] |  | 2.04 | 
4 | CC(=O)N1CCC[C@]12CC=CCCCC1(CCCC=CCCCCCC[C@@](C)(C(=O)N[C@@H](Cc3ccccc3)C(=O)N[C@@H](Cc3c[nH]c4ccccc34)C(=O)N[C@@H](CO)C(N)=O)NC(=O)[C@H](C(C)C)NC(=O)[C@H](Cc3ccccc3)NC(=O)[C@H](C)NC(=O)[C@H](C)NC(=O)[C@H](CC(=O)O)NC(=O)[C@H](CC(=O)O)NC1=O)NC(=O)[C@H](C)NC(=O)[C@H](CC(=O)O)NC2=O (single isomer, unassigned) [I-334, Ac-PL3-Asp-Ala-B5-Asp-Asp-Ala-Ala-Phe-Val-S8-Phe-WCHO-Ser-NH2] |  |  | logD (pH 7.4, CHI Log D): 1.86
5 | CC(=O)N1CCC[C@]12CC=CCCCC1(CCCC=CCCCCCC[C@@](C)(C(=O)N[C@@H](Cc3ccccc3)C(=O)N[C@@H](Cc3c[nH]c4ccccc34)C(=O)N[C@@H](CO)C(N)=O)NC(=O)[C@H](C(C)C)NC(=O)[C@H](Cc3ccccc3)NC(=O)[C@H](C)NC(=O)[C@H](C)NC(=O)[C@H](CC(=O)O)NC(=O)[C@H](CC(=O)O)NC1=O)NC(=O)[C@H](C)NC(=O)[C@H](CC(=O)O)NC2=O (single isomer, unassigned) [I-335, Ac-PL3-Asp-Ala-B5-Asp-Asp-Ala-Ala-Phe-Val-S8-Phe-WCHO-Ser-NH2] | 1.928 |  | 

Further lines, with some results ahead:

Row | CHI Log D | chromatographic logD (pH 7.4, CHI Log D) | Structure (SMILES) | also measured
6 |  | 2.34 | CC(=O)N1CCC[C@]12CC=CCCCC1(CCCC=CCCCCCC[C@@](C)(C(=O)N[C@@H](Cc3ccccc3)C(=O)N[C@@H](Cc3c[nH]c4ccccc34)C(=O)N[C@@H](CCC(N)=O)C(N)=O)NC(=O)[C@H](C(C)C)NC(=O)[C@H](Cc3ccccc3)NC(=O)[C@H](C)NC(=O)[C@H](C)NC(=O)[C@H](CCC(=O)O)NC(=O)[C@H](CC(=O)O)NC1=O)NC(=O)[C@H](C)NC(=O)[C@H](Cc1c[nH]cn1)NC2=O (single isomer, unassigned) [I-314, Ac-PL3-His-Ala-B5-Asp-Glu-Ala-Ala-Phe-Val-S8-Phe-Trp-Gln-NH2] | 
7 | 1.307 |  | CC(=O)N[C@@H](Cc1ccccc1)C(=O)N[C@@H](CC(=O)O)C(=O)N[C@@H](C)C(=O)N[C@]1(C)CCCCCCC=CCOC(=O)N2CC[C@@](C(=O)N[C@@H](Cc3ccccc3)C(=O)N[C@@H](Cc3c[nH]c4ccccc34)C(=O)N[C@@H](CCC(N)=O)C(N)=O)(C2)NC(=O)[C@H](C(C)C)NC(=O)[C@H](Cc2ccccc2)NC(=O)[C@H](C)NC(=O)[C@H](C)NC(=O)[C@H](CCC(=O)O)NC(=O)[C@H](CC(=O)O)NC1=O [I-3, Ac-Phe-Asp-Ala-R8-Asp-Glu-Ala-Ala-Phe-Val-PyrS-Phe-Trp-Gln-NH2] | 
8 | 1.353 |  | CC(=O)N[C@@H](Cc1ccccc1)C(=O)N[C@@H](CC(=O)O)C(=O)N[C@@H](C)C(=O)N[C@]1(C)CCCCCCC=CCOC(=O)N2CC[C@@](C(=O)N[C@@H](Cc3ccccc3)C(=O)N[C@@H](Cc3c[nH]c4ccccc34)C(=O)N[C@@H](CCC(N)=O)C(N)=O)(C2)NC(=O)[C@H](C(C)C)NC(=O)[C@H](Cc2ccccc2)NC(=O)[C@H](C)NC(=O)[C@H](C)NC(=O)[C@H](CCC(=O)O)NC(=O)[C@H](CC(=O)O)NC1=O [I-4, Ac-Phe-Asp-Ala-R8-Asp-Glu-Ala-Ala-Phe-Val-PyrS-Phe-Trp-Gln-NH2] | 
9 | 2.013 |  | CCCC[C@@H]1NC(=O)[C@H](CC(=O)O)NC(=O)[C@](C)(NC(=O)[C@H](C)NC(=O)[C@H](CC(=O)O)NC(=O)[C@H](Cc2ccccc2)NC(C)=O)CCCCCCC=CCOC(=O)N2CC[C@@](C(=O)N[C@@H](Cc3ccccc3)C(=O)N[C@@H](Cc3c[nH]c4ccccc34)C(=O)N[C@@H](CCC(N)=O)C(N)=O)(C2)NC(=O)[C@H](C(C)C)NC(=O)[C@H](Cc2ccccc2)NC(=O)[C@H](C)NC(=O)[C@H](C)NC1=O [I-14, Ac-Phe-Asp-Ala-R8-Asp-nLeu-Ala-Ala-Phe-Val-PyrS-Phe-Trp-Gln-NH2] | 
10 | 0.942 |  | CC(=O)N[C@@H](Cc1ccccc1)C(=O)N[C@@H](CC(=O)O)C(=O)N[C@@H](C)C(=O)N[C@]1(C)CCCCCCC=CCOC(=O)N2CC[C@@](C(=O)N[C@@H](Cc3ccccc3)C(=O)N[C@@H](Cc3c[nH]c4ccccc34)C(=O)N[C@@H](CCC(N)=O)C(N)=O)(C2)NC(=O)[C@H](C(C)C)NC(=O)[C@H](Cc2ccccc2)NC(=O)[C@H](CCCC(=O)O)NC(=O)[C@H](C)NC(=O)[C@H](CC(=O)O)NC(=O)[C@H](CC(=O)O)NC1=O [I-23, Ac-Phe-Asp-Ala-R8-Asp-Asp-Ala-Aad-Phe-Val-PyrS-Phe-Trp-Gln-NH2] | 
11 | 0.977 |  | CC(=O)N[C@@H](Cc1ccccc1)C(=O)N[C@@H](CC(=O)O)C(=O)N[C@@H](C)C(=O)N[C@]1(C)CCCCCCC=CCOC(=O)N2CC[C@@](C(=O)N[C@@H](Cc3ccccc3)C(=O)N[C@@H](Cc3c[nH]c4ccccc34)C(=O)N[C@@H](CCC(N)=O)C(N)=O)(C2)NC(=O)[C@H](C(C)C)NC(=O)[C@H](Cc2ccccc2)NC(=O)[C@H](CCCC(=O)O)NC(=O)[C@H](C)NC(=O)[C@H](CC(=O)O)NC(=O)[C@H](CC(=O)O)NC1=O [I-24, Ac-Phe-Asp-Ala-R8-Asp-Asp-Ala-Aad-Phe-Val-PyrS-Phe-Trp-Gln-NH2] | 
12 |  | 1.25 | CC(=O)N[C@@H](Cc1ccccc1)C(=O)N[C@@H](CC(=O)O)C(=O)N[C@@H](C)C(=O)N[C@]1(C)CCCCC=CCOC(=O)N(C)CCC[C@@](C)(C(=O)N[C@@H](Cc2ccccc2)C(=O)N[C@@H](Cc2c[nH]c3ccccc23)C(=O)N[C@@H](CCC(N)=O)C(N)=O)NC(=O)[C@H](C(C)C)NC(=O)[C@H](Cc2ccccc2)NC(=O)[C@H](C)NC(=O)[C@H](C)NC(=O)[C@H](CC(=O)O)NC(=O)[C@H](CC(=O)O)NC1=O [I-26, Ac-Phe-Asp-Ala-R6-Asp-Asp-Ala-Ala-Phe-Val-SeN-Phe-Trp-Gln-NH2] | 
